Molecular target: T1, human PAH with the R408W mutation (Homo sapiens, UniProt P00439, R408W)
T1 construct: expressed in transfected cells
T1 sequence (P00439 1-452 R408W): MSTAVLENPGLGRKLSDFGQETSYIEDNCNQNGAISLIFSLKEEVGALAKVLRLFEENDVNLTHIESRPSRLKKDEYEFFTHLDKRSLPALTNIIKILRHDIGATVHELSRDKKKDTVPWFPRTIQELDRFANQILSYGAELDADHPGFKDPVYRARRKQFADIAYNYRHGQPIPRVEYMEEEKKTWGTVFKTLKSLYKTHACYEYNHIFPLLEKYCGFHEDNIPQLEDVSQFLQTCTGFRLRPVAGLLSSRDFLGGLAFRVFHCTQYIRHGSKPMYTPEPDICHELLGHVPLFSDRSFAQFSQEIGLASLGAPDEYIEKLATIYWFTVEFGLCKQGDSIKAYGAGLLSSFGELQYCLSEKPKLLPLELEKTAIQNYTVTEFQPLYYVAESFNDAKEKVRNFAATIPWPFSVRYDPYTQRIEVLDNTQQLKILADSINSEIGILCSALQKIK
Experiment: Cell Based Phenylalanine Flux Assay
Conditions: A375 cells expressing human R408W PAH; 24 hrs with compound; 13C-Tyrosine by LC-MS; average where tested multiple times; read-out: AC50

Row | AC50 [µM] | SMILES
1 | > 5 | Cc1nnc(CCC(=O)N2CCc3[nH]cnc3C2c2nc3ccccc3s2)o1 (stereo not drawn) [listing 1 of 2 here]
2 | > 5 | Cn1cc(-c2cnc(CC(=O)N3CCc4[nH]cnc4C3c3nc4ccccc4s3)s2)cn1 (stereo not drawn) [listing 1 of 2 here]
3 | > 5 | O=C(Cc1ncc(-c2ccccc2)s1)N1CCc2[nH]cnc2C1c1nc2ccccc2s1 (stereo not drawn) [listing 1 of 2 here]
4 | > 5 | O=C(Cc1coc(C(F)F)n1)N1CCc2[nH]cnc2C1c1nc2ccccc2s1 (stereo not drawn) [listing 1 of 2 here]
5 | > 5 | O=C(CCc1nnc(C(F)F)o1)N1CCc2[nH]cnc2C1c1nc2ccccc2s1 (stereo not drawn) [listing 1 of 2 here]
6 | > 5 | Cc1ncc(CC(=O)N2CCc3[nH]cnc3C2c2nc3ccccc3s2)o1 (stereo not drawn) [listing 1 of 2 here]
7 | > 5 | O=C(Cc1ccccn1)N1CCc2[nH]cnc2C1c1nc2ccccc2s1 (stereo not drawn) [listing 1 of 2 here]
8 | > 5 | O=C(Cc1cnn2ccccc12)N1CCc2[nH]cnc2C1c1nc2ccccc2s1 (stereo not drawn) [listing 1 of 2 here]
9 | > 5 | O=C(Cc1cscn1)N1CCc2[nH]cnc2C1c1nc2ccccc2s1 (stereo not drawn)
10 | > 5 | O=C(Cc1cncs1)N1CCc2[nH]cnc2C1c1nc2ccccc2s1 (stereo not drawn) [listing 1 of 2 here]
11 | > 5 | O=C(Cc1nccs1)N1CCc2[nH]cnc2C1c1nc2cccc(F)c2s1 (stereo not drawn) [listing 1 of 2 here]
12 | > 5 | O=C(c1cnn(CC(F)(F)F)c1)N1CCc2[nH]cnc2C1c1nc2ccccc2s1 (stereo not drawn) [listing 1 of 2 here]
13 | > 5 | Cc1nc(-c2ccccn2)c(C(=O)N2CCc3[nH]cnc3C2c2nc3ccccc3s2)o1 (stereo not drawn) [listing 1 of 2 here]
14 | > 5 | O=C(c1oc(-c2ccccc2)nc1-c1ccccc1)N1CCc2[nH]cnc2C1c1nc2ccccc2s1 (stereo not drawn) [listing 1 of 2 here]
15 | > 5 | Cn1cc(-c2cccc(C(=O)N3CCc4[nH]cnc4C3c3nc4ccccc4s3)c2)cn1 (stereo not drawn)
16 | 1 to 5 | O=C(c1nc(C(F)(F)F)co1)N1CCc2[nH]cnc2C1c1nc2ccccc2s1 (stereo not drawn)
17 | > 5 | O=C(c1nc(Cl)cs1)N1CCc2[nH]cnc2C1c1nc2c(F)cccc2s1 (stereo not drawn) [listing 1 of 2 here]
18 | > 5 | Cc1nc(N2CCOCC2)oc1C(=O)N1CCCc2[nH]cnc2C1c1nc2ccccc2s1 (stereo not drawn) [listing 1 of 2 here]
19 | > 5 | Cc1nc(-c2ccccn2)sc1C(=O)N1CCc2[nH]cnc2C1c1nc2ccccc2s1 (stereo not drawn) [listing 1 of 2 here]
20 | > 5 | O=C(c1nnc(-c2ccccn2)o1)N1CCCc2[nH]cnc2C1c1nc2ccccc2s1 (stereo not drawn)
21 | > 5 | O=C(c1cnn2cc(CCc3ccccc3)ccc12)N1CCc2[nH]cnc2C1c1nc2ccccc2s1 (stereo not drawn) [listing 1 of 2 here]
22 | > 5 | O=C(c1cnn2cc(N3CCCC3)ccc12)N1CCc2[nH]cnc2C1c1nc2ccccc2s1 (stereo not drawn) [listing 1 of 2 here]
23 | > 5 | O=C(c1cnn2cc(Cl)ccc12)N1CCc2nc[nH]c2C1c1nc2cc(F)ccc2s1 (stereo not drawn) [listing 1 of 2 here]
24 | > 5 | O=C(C1CC1F)N1CCc2[nH]cnc2C1c1nc2ccccc2s1 (stereo not drawn) [listing 1 of 4 here]

Row | AC50 [µM] | SMILES
25 | > 5 | O=C(C1CC1F)N1CCc2[nH]cnc2C1c1nc2ccccc2s1 (stereo not drawn) [listing 2 of 4 here]
26 | > 5 | O=C(N1CCC(c2ccccc2)C1)N1CCc2[nH]cnc2C1c1nc2ccccc2s1 (stereo not drawn) [listing 1 of 3 here]
27 | > 5 | O=C(N1CCC(c2ccccc2)C1)N1CCc2[nH]cnc2C1c1nc2ccccc2s1 (stereo not drawn) [listing 2 of 3 here]
28 | > 5 | c1ccc2sc(C3c4nc[nH]c4CCN3CC3CC3)nc2c1 (stereo not drawn)
29 | > 5 | O=C(Nc1ccc(F)cc1)N1CCc2[nH]cnc2C1c1nc2ccccc2s1 (stereo not drawn) [listing 1 of 2 here]
30 | > 5 | Cc1ncc(C(=O)N2CCc3[nH]cnc3C2c2nc3c(F)cccc3s2)o1 (stereo not drawn)
31 | > 5 | Cc1nc(-c2ccccn2)c(C(=O)N2CCc3[nH]cnc3C2c2nc3c(F)cccc3s2)o1 (stereo not drawn) [listing 1 of 2 here]
32 | > 5 | O=C(c1ncco1)N1CCc2[nH]cnc2C1c1nc2cc(F)ccc2s1 (stereo not drawn) [listing 1 of 2 here]
33 | > 5 | Cc1nnc(C(=O)N2CCc3[nH]cnc3C2c2nc3cc(F)ccc3s2)s1 (stereo not drawn) [listing 1 of 2 here]
34 | > 5 | O=C(c1ccno1)N1CCc2[nH]cnc2C1c1nc2ccc(F)cc2s1 (stereo not drawn) [listing 1 of 2 here]
35 | > 5 | O=C(c1ncco1)N1CCc2[nH]cnc2C1c1nc2ccc(F)cc2s1 (stereo not drawn) [listing 1 of 2 here]
36 | 1 to 5 | COc1ccn2ncc(C(=O)N3CCc4[nH]cnc4C3c3nc4ccc(F)cc4s3)c2c1 (stereo not drawn)
37 | > 5 | O=C(c1cnn2cc(F)ccc12)N1CCc2[nH]cnc2C1c1nc2ccc(F)cc2s1 (stereo not drawn) [listing 1 of 2 here]
38 | > 5 | O=C(c1cnn2cc(CO)ccc12)N1CCc2[nH]cnc2C1c1nc2ccccc2s1 (stereo not drawn) [listing 1 of 2 here]
39 | > 5 | CNCc1ccc2c(C(=O)N3CCc4[nH]cnc4C3c3nc4ccccc4s3)cnn2c1 (stereo not drawn) [listing 1 of 2 here]
40 | 1 to 5 | Cc1nnc(CCC(=O)N2CCc3[nH]cnc3C2c2nc3ccccc3s2)o1 (stereo not drawn) [listing 2 of 2 here]
41 | 1 to 5 | O=C(Cc1coc(C(F)F)n1)N1CCc2[nH]cnc2C1c1nc2ccccc2s1 (stereo not drawn) [listing 2 of 2 here]
42 | 1 to 5 | O=C(CCc1nnc(C(F)F)o1)N1CCc2[nH]cnc2C1c1nc2ccccc2s1 (stereo not drawn) [listing 2 of 2 here]
43 | 1 to 5 | Cc1ncc(CC(=O)N2CCc3[nH]cnc3C2c2nc3ccccc3s2)o1 (stereo not drawn) [listing 2 of 2 here]
44 | 1 to 5 | O=C(Cc1cnn2ccccc12)N1CCc2[nH]cnc2C1c1nc2ccccc2s1 (stereo not drawn) [listing 2 of 2 here]
45 | 1 to 5 | O=C(Cc1cncs1)N1CCc2[nH]cnc2C1c1nc2ccccc2s1 (stereo not drawn) [listing 2 of 2 here]
46 | > 5 | O=C(Cn1cncn1)N1CCc2[nH]cnc2C1c1nc2ccccc2s1 (stereo not drawn)
47 | 1 to 5 | O=C(Cc1ccccn1)N1CCc2[nH]cnc2C1c1nc2ccccc2s1 (stereo not drawn) [listing 2 of 2 here]
48 | > 5 | Cc1nnc(CC(=O)N2CCc3[nH]cnc3C2c2nc3ccccc3s2)o1 (stereo not drawn)

Row | AC50 [µM] | SMILES
49 | 1 to 5 | O=C(Cc1cnco1)N1CCc2[nH]cnc2C1c1nc2ccccc2s1 (stereo not drawn)
50 | 1 to 5 | Cn1cc(-c2cnc(CC(=O)N3CCc4[nH]cnc4C3c3nc4ccccc4s3)s2)cn1 (stereo not drawn) [listing 2 of 2 here]
51 | 1 to 5 | Cc1ncoc1CC(=O)N1CCc2[nH]cnc2C1c1nc2ccccc2s1 (stereo not drawn)
52 | 1 to 5 | O=C(Cc1ncc(-c2ccccc2)s1)N1CCc2[nH]cnc2C1c1nc2ccccc2s1 (stereo not drawn) [listing 2 of 2 here]
53 | 1 to 5 | O=C(Cc1nccs1)N1CCc2[nH]cnc2C1c1nc2cccc(F)c2s1 (stereo not drawn) [listing 2 of 2 here]
54 | 1 to 5 | O=C(c1cnn(CC(F)(F)F)c1)N1CCc2[nH]cnc2C1c1nc2ccccc2s1 (stereo not drawn) [listing 2 of 2 here]
55 | > 5 | O=C(c1cnc[nH]1)N1CCc2[nH]cnc2C1c1nc2ccccc2s1 (stereo not drawn)
56 | 1 to 5 | O=C(c1nsc2ccccc12)N1CCc2[nH]cnc2C1c1nc2ccccc2s1 (stereo not drawn)
57 | 1 to 5 | O=C(c1cnco1)N1CCCc2[nH]cnc2C1c1nc2ccccc2s1 (stereo not drawn)
58 | > 5 | Cc1nc(C=CC2CC2)oc1C(=O)N1CCCc2[nH]cnc2C1c1nc2ccccc2s1 (stereo not drawn)
59 | 1 to 5 | Cc1nc(-c2ccccn2)c(C(=O)N2CCc3[nH]cnc3C2c2nc3ccccc3s2)o1 (stereo not drawn) [listing 2 of 2 here]
60 | 1 to 5 | O=C(c1oc(-c2ccccc2)nc1-c1ccccc1)N1CCc2[nH]cnc2C1c1nc2ccccc2s1 (stereo not drawn) [listing 2 of 2 here]
61 | > 5 | Cc1nc(C(C)(C)O)oc1C(=O)N1CCCc2[nH]cnc2C1c1nc2ccccc2s1 (stereo not drawn)
62 | 1 to 5 | CC(C)(O)c1nnc(C(=O)N2CCc3[nH]cnc3C2c2nc3c(F)cccc3s2)o1 (stereo not drawn)
63 | > 5 | O=C(c1ocnc1-c1ccccn1)N1CCCc2[nH]cnc2C1c1nc2ccccc2s1 (stereo not drawn)
64 | 1 to 5 | O=C(c1nc(Cl)cs1)N1CCc2[nH]cnc2C1c1nc2c(F)cccc2s1 (stereo not drawn) [listing 2 of 2 here]
65 | > 5 | Cc1nc(CN2CCOCC2)oc1C(=O)N1CCCc2[nH]cnc2C1c1nc2ccccc2s1 (stereo not drawn)
66 | 1 to 5 | Cc1nc(N2CCOCC2)oc1C(=O)N1CCCc2[nH]cnc2C1c1nc2ccccc2s1 (stereo not drawn) [listing 2 of 2 here]
67 | 1 to 5 | Cc1nc(-c2ccccn2)oc1C(=O)N1CCCc2[nH]cnc2C1c1nc2ccccc2s1 (stereo not drawn)
68 | 1 to 5 | Cc1nc(-c2ccccn2)sc1C(=O)N1CCc2[nH]cnc2C1c1nc2ccccc2s1 (stereo not drawn) [listing 2 of 2 here]
69 | 1 to 5 | c1ccc2sc(C3c4nc[nH]c4CCN3c3nnc(C4CC4)o3)nc2c1 (stereo not drawn)
70 | 1 to 5 | Cc1nnc(C(=O)N2CCc3[nH]cnc3C2c2nc3ccccc3s2)o1 (stereo not drawn)
71 | 1 to 5 | O=C(c1cnn2cc(CCc3ccccc3)ccc12)N1CCc2[nH]cnc2C1c1nc2ccccc2s1 (stereo not drawn) [listing 2 of 2 here]
72 | > 5 | O=C(c1cnn2cc(C=Cc3ccccc3)ccc12)N1CCc2[nH]cnc2C1c1nc2ccccc2s1 (stereo not drawn)

Row | AC50 [µM] | SMILES
73 | 1 to 5 | O=C(c1cnn2cc(N3CCCC3)ccc12)N1CCc2[nH]cnc2C1c1nc2ccccc2s1 (stereo not drawn) [listing 2 of 2 here]
74 | 1 to 5 | O=C(c1cnn2cc(Br)ccc12)N1CCc2[nH]cnc2C1c1nc2cc(F)ccc2s1 (stereo not drawn)
75 | 1 to 5 | O=C(c1cnn2cc(Cl)ccc12)N1CCc2nc[nH]c2C1c1nc2cc(F)ccc2s1 (stereo not drawn) [listing 2 of 2 here]
76 | 1 to 5 | O=C(C1CC1F)N1CCc2[nH]cnc2C1c1nc2ccccc2s1 (stereo not drawn) [listing 3 of 4 here]
77 | 1 to 5 | O=C(C1CC1F)N1CCc2[nH]cnc2C1c1nc2ccccc2s1 (stereo not drawn) [listing 4 of 4 here]
78 | 1 to 5 | O=C(N1CCC(c2ccccc2)C1)N1CCc2[nH]cnc2C1c1nc2ccccc2s1 (stereo not drawn) [listing 3 of 3 here]
79 | > 5 | Cc1ncoc1C(=O)N1CC(C)(C)c2[nH]cnc2C1c1nc2ccccc2s1 (stereo not drawn)
80 | 1 to 5 | O=C(Nc1ccc(F)cc1)N1CCc2[nH]cnc2C1c1nc2ccccc2s1 (stereo not drawn) [listing 2 of 2 here]
81 | 1 to 5 | O=C(c1ccno1)N1CCc2nc[nH]c2C1c1nc2c(F)cccc2s1 (stereo not drawn)
82 | 1 to 5 | Cc1nc(-c2ccccn2)c(C(=O)N2CCc3[nH]cnc3C2c2nc3c(F)cccc3s2)o1 (stereo not drawn) [listing 2 of 2 here]
83 | > 5 | O=C(c1n[nH]c2ccccc12)N1CCc2[nH]cnc2C1c1nc2cc(F)ccc2s1 (stereo not drawn)
84 | 1 to 5 | O=C(c1ncco1)N1CCc2[nH]cnc2C1c1nc2cc(F)ccc2s1 (stereo not drawn) [listing 2 of 2 here]
85 | 1 to 5 | O=C(c1cnco1)N1CCc2[nH]cnc2C1c1nc2cc(F)ccc2s1 (stereo not drawn)
86 | 1 to 5 | Cc1nnc(C(=O)N2CCc3[nH]cnc3C2c2nc3cc(F)ccc3s2)s1 (stereo not drawn) [listing 2 of 2 here]
87 | 1 to 5 | O=C(c1ccno1)N1CCc2[nH]cnc2C1c1nc2ccc(F)cc2s1 (stereo not drawn) [listing 2 of 2 here]
88 | 1 to 5 | O=C(c1ncco1)N1CCc2[nH]cnc2C1c1nc2ccc(F)cc2s1 (stereo not drawn) [listing 2 of 2 here]
89 | 1 to 5 | O=C(c1cnn2cc(F)ccc12)N1CCc2[nH]cnc2C1c1nc2ccc(F)cc2s1 (stereo not drawn) [listing 2 of 2 here]
90 | 1 to 5 | O=C(c1n[nH]c2ccccc12)N1CCc2[nH]cnc2C1c1nc2cccc(F)c2s1 (stereo not drawn)
91 | 1 to 5 | O=C(c1ccno1)N1CCc2[nH]cnc2C1c1nc2cccc(F)c2s1 (stereo not drawn)
92 | 1 to 5 | O=C(c1cnn2cc(CO)ccc12)N1CCc2[nH]cnc2C1c1nc2ccccc2s1 (stereo not drawn) [listing 2 of 2 here]
93 | 1 to 5 | O=C(N1CCC(O)C1)N1CCc2[nH]cnc2C1c1nc2ccccc2s1 (stereo not drawn)
94 | 1 to 5 | CNCc1ccc2c(C(=O)N3CCc4[nH]cnc4C3c3nc4ccccc4s3)cnn2c1 (stereo not drawn) [listing 2 of 2 here]
95 | > 5 | O=C(c1cnco1)N1CC2(CC2)c2[nH]cnc2C1c1nc2c(F)cccc2s1 (stereo not drawn) [listing 1 of 2 here]
96 | 1 to 5 | O=C(c1cnco1)N1CC2(CC2)c2[nH]cnc2C1c1nc2c(F)cccc2s1 (stereo not drawn) [listing 2 of 2 here]

Reference: patent publication US20250171438A1 (Agios Pharmaceuticals, Inc., priority 2022, published 2025)
